Experimental findings from patent publication US20210137850A1, “DIAGNOSIS & TREATMENT OF ERCC3-MUTANT CANCER” (MEMORIAL SLOAN KETTERING CANCER CENTER, priority 2017, published 2021) are described below.

Test [1] concerns XPCS2BA cells stably overexpressing ERCC3 WT. The test is described as follows: Cell viability after IlludinS, cells overexpressing wild-type ERCC3 (CellTiter-Glo). It is filed as cell-based, human. The procedure: (§1) To understand whether this variant has a deleterious effect on the gene function, we carried out a series of in vitro functional assays. Using a previously well characterized ERCC3 deficient cell line derived from an XP/CS patient (7), phenotype rescue after DNA damage was assessed by cell viability assay. […] Similarly, following UVC irradiation at a dose of 10 J/m^2, 72 hours post-exposure, 42% of the R109X cells survived compared to 63% of WT cells (P<0.0001). At a dose of […], these numbers reduced more drastically for the mutant, showing the same trend as the IlludinS exposure experiment. (FIG. 2D).
(§2) For viability assessment following treatment with IlludinS (Cayman Chemical), cells were seeded into 96 well plates 24 hours prior to treatment. For post-UV viability assays, cells were exposed to the appropriate doses of UV irradiation and subsequently seeded into 96 well plates. Cell viability was measured after 72 hours using the CellTiter-Glo® Luminescent Cell Viability Assay (Promega).
On the technique in general: Cellular ATP, detected with luciferase, serves as a proxy for viable cell number.

Test [2] relates to XPCS2BA cells stably overexpressing ERCC3 R109X. In words: Cell viability after IlludinS, cells overexpressing the ERCC3 R109X mutant (CellTiter-Glo). It is filed as cell-based, human. The procedure: as §1, §2
The next test concerns parental HMLE cells. In words: Cell viability after IlludinS, parental mammary epithelial cells. The note with it: 2 ng/ml IlludinS, 72 hours. In kind it is cell-based, human. The procedure:
(§3) Overexpression of ERCC3 mutant constructs […] physiological levels of protein in a germline heterozygous mutation state within cells. Therefore, using CRISPR/Cas9, we engineered several heterozygous mutations in the mammary epithelial cell line HMLE that mimic the site of the originally discovered recurrent mutation in breast cancer individuals (Table 3, FIG. 4).
as §2

Test [3] concerns γ-H2AX in HMLE control and ERCC3 CRISPR edited cell lines. In kind it is cell-based, human. To be noted: 8 ng/ml IlludinS for 1 h; ERCC3 CRISPR mutants vs wild type, P<0.05. The protocol:
To assess the induction and removal of phosphorylated H2AX in response to DNA damage we performed immunostaining and flow cytometric analysis of γ-H2AX positive cells following treatment with IlludinS.
For flow cytometric analysis, 24 h after seeding, cells were either left untreated or were treated with 8 ng/ml IlludinS for 1 h. Treated cells were subsequently washed with PBS and supplemented with drug-free medium. The cells were harvested at different time points after treatment and fixed with 4% PFA for 10 min at RT. Cells were quickly chilled on ice and ice-cold MeOH was added to a final concentration of 90%. The cells were incubated on ice for 30 min and stored at −20° C. For immunostaining the cells were washed twice with PBS/0.5% BSA and incubated with anti phospho-Histone H2A.X (Ser139) Antibody (1:250; Cell Signaling Technology) for 1 h at RT, washed again and incubated with Alexa-488 conjugated secondary antibody for 45 min at RT. For each condition 20.000 cells were recorded and data from two replicate experiments was analyzed using the FlowJo software (V10.1).

In test [4] the test system is CRISPR edited HMLE cell lines (ERCC3 heterozygous mutants). The test is described as follows: Cell viability after IlludinS, CRISPR/Cas9 edited ERCC3 heterozygous mutant cells. In kind it is cell-based, human. The procedure: as §3, §2
The subject of test [5] is XPCS2BA parental cell line. The test is described as follows: Cell viability after IlludinS, parental ERCC3-deficient cell line (CellTiter-Glo). It is filed as cell-based, human. The protocol: as §1, §2
The test system of test [6] is HMLE+/R109X cells vs HMLE+/+ cells. In words: Cell viability after Irofulven, ERCC3 WT vs R109X heterozygous HMLE cells. In kind it is cell-based, human. To be noted: 72 hours, increasing doses. The procedure:
as §2
(§4) In vitro experiments were performed to compare the effects of Irofulven on cell viability of ERCC3 WT HMLE cells and CRISPR-edited HMLE cells heterozygous for the ERCC3 R109X mutation. These same cell lines were used in Example 1 to assess sensitivity to IlludinS. Cell viability was assessed 72 hours following treatment of the cells with increasing doses of Irofulven. FIG. 11A provides the results in graphical form. Similar experiments were also performed using cells similar to those described above (i.e. that were either ERCC3 WT or R109X) but that also stably expressed mutant hRAS-V12. (These hRAS-V12 cells were used for xenograft generation in the in vivo experiments described below). FIG. 11B provides results showing the effects of Irofulven on cell viability of the +/+WT H-RAS-V12 HMLE cells the heterozygous+/−R109X H-RAS-V12 HMLE cells. The data shown in both FIG. 11A and FIG. 11B represents the mean of three experiments with error bars representing the SEM.

In test [7] the test system is ERCC3 WT HMLE HRAS-V12 tumors. In words: Mouse xenograft model, ERCC3 WT tumors. In kind it is in vivo, athymic nude mice. The note with it: 3.5 mg/kg or 7 mg/kg IP daily for 5 days per 21-day cycle. The protocol:
(§5) To assess the effect of the ERCC3 R109X mutation on Irolfulven sensitivity in vivo, a tumor xenograft system was generated and used. As described above, ERCC3 WT and ERCC3-mutant (R109X) cells were made in an HMLE HRAS-V12 background. These cells were injected into the flanks of athymic nude mice. The resultant tumors were allowed to grow to a size of about 100 mm^3. Treatment was then started. Either a vehicle control or Irofulven (at a dose of either 3.5 mg/kg or 7 mg/kg) was injected intraperitoneally (IP) daily for 5 consecutive days (the treatment “on” time), followed by a period of 16 days of treatment “off” time—making one 21-day cycle. Treatment cycles were then repeated. This treatment regimen was similar to that employed in several reported human clinical trials of Irofulven. The size of the tumors was measured weekly. […] In the ERCC3 WT xenograft group the average tumor size at treatment initiation was 97.7 mm^3 (74.6-120.3 mm^3). In the ERCC3 R109X xenograft group the average tumor size at treatment initiation was 172.8 mm^3 (101.8-238.6 mm^3). […] Additional experiments are underway to further validate these preliminary findings.

Test [8] relates to R109X H-RAS-V12 HMLE cells vs WT H-RAS-V12 HMLE cells. In words: Cell viability after Irofulven, hRAS-V12 expressing ERCC3 WT vs R109X HMLE cells. To be noted: 72 hours, increasing doses, hRAS-V12 HMLE R109X heterozygous. In kind it is cell-based, human. The protocol:
as §2, §4

For test [9], the system named is ERCC3 expression in ERCC3 mutant tumors. The test is described as follows: Real time PCR of ERCC3 transcript in xenograft tumors. The note with it: two treatment cycles of Irofulven. In kind it is in vivo, athymic nude mice. In general terms: Quantitative PCR measures a nucleic acid by following its amplification.
In test [10] the test system is ERCC3 R109X HMLE HRAS-V12 tumors. The test is described as follows: Mouse xenograft model, ERCC3 R109X mutant tumors. In kind it is in vivo, athymic nude mice. The procedure: as §5

For `CC1=C2C(=C[C@@](C)(CO)[C@@H]2O)C(=O)[C@](C)(O)C12CC2` [IlludinS, Illudin S], the cells survived in test [1] (2 ng/ml IlludinS, 72 hours) stood at 77%; in [2] (2 ng/ml IlludinS, 72 hours, R109X overexpressing XPCS2BA), 42%; in test [5] (2 ng/ml IlludinS, 72 hours, XPCS2BA) it was 3%. Moreover, the cell survival entry is on record as “most of the WT cells survived” in test [1] (4 ng/ml IlludinS); “all the parental HMLE cells survived” in the test on parental HMLE cells; “significantly reduced survival” in test [4] (2 ng/ml IlludinS, 72 hours, CRISPR edited HMLE, P<0.0001). Moreover, in test [2] (increasing doses of IlludinS, R109X overexpressing cells), the “cell death compared to ERCC3 WT” value is “significantly higher cell death”. Further, the “reduction in γ-H2AX after DNA damage” value in [3] was “significantly lower”. For the same molecule, the relative cell viability result in [4] (72 hours after exposure to IlludinS, ERCC3 CRISPR clones) is recorded as “substantial reduction in relative cell viability”. For the same molecule, the “response to IlludinS after stable overexpression of WT ERCC3 (rescue)” value in [4] (ERCC3 CRISPR cell lines re-expressing WT ERCC3) is on record as “same response to IlludinS as the WT HMLE cell line”. Besides, the cell death result in test [5] (higher doses of IlludinS, untransfected cells) is given as “all died”.

For the molecule `CC1=C(CO)C2=C(C)C3(CC3)[C@@](C)(O)C(=O)C2=C1` [Irofulven, 6-hydroxymethylacylfulvene], the “sensitivity to Irofulven (inhibition of cell viability) vs ERCC3 WT cells” value in test [6] and in test [8] was “much more sensitive” in each case. In addition, the tumor growth entry in test [7] and in test [10] (3.5 mg/kg or 7 mg/kg IP daily for 5 days per 21-day cycle) was “significant reduction” in each case. Besides, the “ERCC3 expression (relative transcript level)” value in test [9] is on record as “upregulated”. In [10] (preliminary studies), the “sensitivity to tumor inhibitory effects compared to ERCC3 WT tumors” value is recorded as “may have been more sensitive”.
